“Also recorded” adds a separate entry of the source. Read-outs that look alike come from different tables or passages of the source.
Columns and labels:
[1] = tested on: small intestine; parameters: cycling cell number: dose or concentration left out as unconfirmed
Text: FIG. 20—KPT-330 treatment in vivo.
FIG. 21A-21C—Analysis of samples collected from the mice of FIG. 20. A. Western blot for lysozyme of samples collected from the small intestine proximal region. B. Graph showing band intensity of the western blot in (A). C. Histological analysis of the distal small intestine from control and treated mice using immunohistochemistry for lysozyme.
FIG. 22—Analysis of samples collected from the mice of FIG. 20. […] Graphs showing Paneth cell, Goblet cell, and cycling cell numbers in the proximal and distal small intestines under each treatment condition using markers for each cell type.

[2] = tested on: Paneth cells; test: In vivo oral gavage of KPT-330 every other day for two weeks: histological counting of Paneth, Olfm4+ stem and PAS+ goblet cells in small intestine; parameters: species or system C57BL/6 wild-type mice
Method: Applicants tracked animal weight every other day, and at day 14 collected the proximal and distal thirds of the small intestine for histological quantification of Paneth, stem, and goblet populations (FIG. 26A). […] Samples were prepared for histology by the 'swiss-roll' technique, and following staining, were blinded and randomized before manual counting of well-preserved features. […] Animal study. 8-10 weeks old wild type C57BL/6NCrl male mice (#027) were purchased from Charles River. […] All animal studies are approved by the Committee on Animal Care (CAC) at Massachusetts Institute of Technology. Histology. The small intestine (SI) was collected from mice and divided into three parts. Only proximal and distal SI were kept in PBS, and medial SI was discarded. Each SI was opened longitudinally and washed in PBS. […] Fixed tissues were embedded in paraffin, and […] sections were mounted on slides. […] For McManus Periodic Acid Schiff (PAS) reaction, slides were deparaffinized, oxidized in periodic acid, and stained with Schiff reagent (Poly Scientific, s272) followed by counterstaining with Harris Hematoxylin. Slides were scanned by Aperio Slide Scanner (Leica) and cells were counted on Aperio eSlide Manager. Slides were randomized before counting, and all cell types were counted in all well-preserved crypts along the longitudinal crypt-villus axis. […] Because Paneth cell number and quality is known to physiologically change along the length of the small intestine, and diseases associated with Paneth cells most frequently present distally^56, Applicants sought to profile how XPO1 inhibition may differentially affect proximal and distal small intestine. Applicants tracked animal weight every other day and collected the proximal and distal thirds of the small intestine at day 14 for histological quantification of Paneth, stem, and goblet populations (FIG. 61A). […] Paneth cells were counted within well-preserved crypts-with at least 30 crypts quantified per animal (representative images FIG. 62C) and the counts were averaged. […] Animal study. 8-10 weeks old wild type C57BL/6NCrl male mice (#027) were purchased from Charles River. […] All animal studies are approved by the Committee on Animal Care (CAC) at Massachusetts Institute of Technology. Histology. The small intestine (SI) was collected from mice and divided into three parts. Only proximal and distal SI were kept in PBS, and medial SI was discarded. Each SI was opened longitudinally and washed in PBS. […] Fixed tissues were embedded in paraffin, and […] sections were mounted on slides. […] For McManus Periodic Acid Schiff (PAS) reaction, slides were deparaffinized, oxidized in periodic acid, and stained with Schiff reagent (Poly Scientific, s272) followed by counterstaining with Harris Hematoxylin. Slides were scanned by Aperio Slide Scanner (Leica) and cells were counted on Aperio eSlide Manager. Slides were blinded and randomized before counting, and all cell types were counted in all well-preserved crypts along the longitudinal crypt-villus axis (Paneth cell: >30 crypts, Olfm4+ cell: ≥17 crypts, Goblet cell: >15 villi, per sample). For the Goblet cell images, the samples that include less than 15 well-preserved crypt-villus axes were excluded, which was predetermined.

[3] = tested on: ISC-enriched organoids; test: Lysozyme secretion assay, 3-D organoids in ENR+CD, normalized to ATP; format: cell-based, murine
Method: (§1) Lysozyme assay (3D culture). ISC-enriched organoids cultured in 3D Matrigel with ENRCV media were passaged to 48-well plate in 3D Matrigel with ENRCV. At day zero, media were replaced to ENR or ENRCD with or without indicated compounds, and media were replaced every other day. At day six, cells were washed twice with basal media and treated with carbamylcholine chloride (Sigma, C4382) for 3 hours. Media were collected and lysozyme activity was measured by EnzChek Lysozyme Assay Kit (ThermoFisher, E22013).
(§2) Lysozyme secretion assay. ISC-enriched organoids in 3D Matrigel culture were passaged to a 48- or 96-well plate and cultured with ENR or ENR+CD media containing DMSO or each drug for 6 days. DMSO- or drug-containing media were changed every other day. On day 6, cells were washed with basal media twice and treated with basal media with or without 10 μM carbamoylcholine chloride for 3 h in a CO2 incubator at 37° C. A part of the conditioned media was collected and used for lysozyme assay (Thermo, E-22013) following the manufacturer's instruction. The fluorescence was measured using excitation/emission of 485/530 nm. CellTiter-Glo 3D Reagent (Promega, G9681) was added afterward, and the cell culture plate was incubated on an orbital shaker at RT for 30 min to induce cell lysis and to stabilize the luminescent signal. The solution was replaced to a 96-well white microplate, and luminescent signals were measured by a microplate reader (infinite M200, Tecan). The standard curve was prepared by diluting recombinant ATP (Promega, P1132). For both assays, a polynomial cubic curve was fitted to a set of standard data, and each sample value was calculated on the Microsoft Excel.
as §2, with “in 3-D” for “in 3D”, “μM carbachol” for “μM carbamoylcholine chloride”, “3 hours” for “3 h”, “C. Conditioned” for “C. A part of the conditioned”, “nm. CTG” for “nm. CellTiter-Glo”, “Reagent” for “Reagent (Promega, G9681)”

[4] = tested on: ISC-enriched organoids; test: Lysozyme secretion assay, 3-D organoids in ENR, normalized to ATP; format: cell-based, murine; details: 6 hit compounds, 6 days ENR, 10 μM Cch 3 h
Method: as §1
Lysozyme secretion assay. ISC-enriched organoids in 3D Matrigel culture were passaged to a 48- or 96-well plate and cultured with ENR or ENR+CD media containing DMSO or each drug for 6 days. DMSO- or drug-containing media were changed every other day. […] The fluorescence was measured using excitation/emission of 485/530 nm. […] The solution was replaced to a 96-well white microplate, and luminescent signals were measured by a microplate reader (infinite M200, Tecan). […] For both assays, a polynomial cubic curve was fitted to a set of standard data, and each sample value was calculated on the Microsoft Excel.
Lysozyme secretion assay. […] The fluorescence was measured using excitation/emission of 485/530 nm. […] The solution was replaced to a 96-well white microplate, and luminescent signals were measured by a microplate reader (infinite M200, Tecan). […]

Structure (SMILES): O=C(/C=C\n1cnc(-c2cc(C(F)(F)F)cc(C(F)(F)F)c2)n1)NNc1cnccn1 [KPT-330]
- Paneth cell number ([1]; distal small intestines, high dose): the high dose decreased Paneth cells
- cycling cell number ([1]; distal small intestines, low dose): significant increase in cycling cell number
- toxicity to mice ([1]; mouse, in vivo): toxic to mice
- Paneth cell number ([1]; proximal small intestines): no significant shift in Paneth cell number
- goblet cell numbers ([1]; proximal/distal small intestines): no significant shift in goblet cell numbers, but the trend was an increase
- Olfm4+ stem cells per crypt ([2]; 0.01 mg/kg, distal SI, day 14): significant increase in Olfm4+ stem cells
- fraction of crypts with more Paneth cells than the vehicle 90th percentile cutoff (5 per crypt) ([2]; 0.01 mg/kg, distal small intestine): 27.9%
- Paneth cell abundance per crypt ([2]; 0.01 mg/kg, distal small intestine, day 14): significant increases in Paneth cell abundance
- Paneth cell abundance per crypt ([2]; 0.01 mg/kg, proximal small intestine, day 14): significant increases in Paneth cell abundance
- fraction of crypts with more Paneth cells than the vehicle 90th percentile cutoff (4 per crypt) ([2]; 0.2 mg/kg, proximal small intestine): 15.5%
- Paneth cell abundance per crypt ([2]; 0.2 mg/kg, proximal small intestine, day 14): significant increases in Paneth cell abundance
- PAS+ goblet cell population ([2]; 0.01-0.2 mg/kg, proximal and distal SI, day 14): did not overserve any significant changes; also recorded: did not identify any significant changes
- additional Paneth cells per crypt in vivo ([2]; low dose KPT-330): 0.5-1 Paneth cells per crypt
- LYZ secretion, dose dependency ([3]; KPT-330 below 160 nM for 6 days, basal and Cch-stimulated): enhanced Paneth cell activity in a dose-dependent manner; also recorded: LYZ secretion increasing in a dose-dependent manner
- enrichment in mature Paneth cells at day 6 (LYZ secretion assay) ([3]; KPT-330 treatment day 4-6): minorly enriched; also recorded: slightly enriched
- most effective dose among tested concentrations ([3]; LYZ secretion, ENR+CD 6 days): 160 nM
- Paneth cell-specific activity (LYZ secretion) in conventional ENR culture [4]: enhancing Paneth cell-specific activity
